How the values were obtained:
[1] = tested on: T1, PAI-1; assay: native PAGE analysis of PAI-1 polymerization; type: biochemical, human; conditions: increasing concentrations up to 50 μM, 30 min 37 °C
T1 construct: purchased Stago BNL (Asnières sur Seine, FR)
Experimental: PAI-1 (1 μM) was mixed with various concentration of annonacinone or DMSO 1% for 30 min at 37 °C. Samples were mixed with 1/3 volume of native gel sample buffer or LDS sample buffer. The former were subjected to BN-PAGE and the latter were fractioned by SDS-PAGE. Proteins band were visualized by silver staining.

[2] = tested on: T1, PAI-1; assay: elastase mediated cleavage of PAI-1 (latency transition) on SDS-PAGE; type: biochemical, human; conditions: up to 50 μM
Experimental: Selective cleavage of active PAI-1 by elastase was observed on SDS-PAGE. PAI-1 (5 μL, 2 μM) was incubated with or without compounds (200 μM, 5 μL, 5% DMSO) for 15 min at 37 °C. Elastase (5 μL, 1.4 μM) was then added and further incubated for 15 min at 37 °C. Reaction was stopped by addition of 4X loading buffer containing SDS and BME followed by immediate boiling. Samples were then analyzed on SDS-PAGE followed by silver staining.

[3] = tested on: FeCl3-occluded venules; assay: murine model of rtPA-induced thrombolysis by intravital microscopy; type: in vivo, mice
Experimental: Thrombolysis was evaluated in an in vivo mouse model according to the method previously described[18] with modifications. Briefly, platelets of anesthetized mice were fluorescently labeled in vivo by injection of rhodamine 6G (3.3 mg/kg) into the retro-orbital plexus, then thrombus formation was induced by topical deposition on the mesenteric vessels of ferric chloride solution (FeCl3; 15%) in 4- to 5-week-old mice. Thrombus growth was monitored in real-time with an inverted epifluorescent microscope (x10) (Nikon Eclipse TE2000U). Within the 10 minutes after total occlusion of the vessel, the effect of annonacinone was evaluated on the efficiency of rtPA-induced thrombolysis by applying directly on the occluded vessels a thrombolytic cocktail (40 μL) composed of 40 μM rtPA (Actilyse®), 200 μM Argatroban (Arganova®) and 0.2% DMSO or 20 μM annonacinone. The incidence of the recanalization, defined as a partial or complete restoration of flow associated to a decrease of more than 50% of the initial thrombus size, and the evolution of thrombus size were determined during 1 hour.

[4] = tested on: T2, PAI-1 T94A; assay: chromogenic screening assay with PAI-1 mutant T94A; type: biochemical
T2 construct: made in house
Experimental: (§1) Compounds from our local collection BioCIS and from the Prestwick compound library (Prestwick chemicals, Illkirch, FR), a collection containing only FDA approved drugs (around 4000 compounds in total) were tested in a chromogenic assay measuring the inhibition rate of tPA-catalyzed spectrozyme® tPA hydrolysis in the presence of PAI-1. Compounds (20 μL, final concentration 50 μM, 1% DMSO) were dispensed in a 96 well half area Greiner plate. A mixture containing 20 μL of PAI-1 (final concentration 20 nM) and 80 μL of Spectrozyme-tPA (final concentration 400 μM) was then added, and the mixture pre-incubated for 45 minutes at 37 °C. At the end of pre-incubation time, 90 μL of the mixture were added to another 96 well half area plate containing 10 μL tPA (final concentration 10 nM). The kinetic was then measured at 405 nm for 45 min at 37 °C in an Envision microplate reader. Progress curves were fitted using the pseudo first order equation to determine the apparent rate constant k.
(§2) Mutants were constructed as previously described. […] The effect of annonacinone was measured at 50 μM for each mutant in our chromogenic screening assay. […] For each mutant, the ratio between the apparent rate constants with and without 50 μM annonacinone were calculated and then compared to that of PAI-1 WT to determine the % of annonacinone activity.

[5] = tested on: T3, PAI-1 K122A; assay: chromogenic screening assay with PAI-1 mutant K122A; type: biochemical; conditions: for Annonacinone activity 50 μM (% WT): ratio of kapp relative to WT (100%)
T3 construct: made in house
Experimental: as §1
Mutants were constructed as previously described. Based on computer modelling, the following mutants were prepared, T79A, T94A, D95A, R118A and K122A. The effect of annonacinone was measured at 50 μM for each mutant in our chromogenic screening assay. Progress curves were fitted using the pseudo first order equation to determine the apparent rate constant k. For each mutant, the ratio between the apparent rate constants with and without 50 μM annonacinone were calculated and then compared to that of PAI-1 WT to determine the % of annonacinone activity.

[6] = tested on: T4, tPA; assay: tPA-catalyzed substrate hydrolysis without PAI-1 (control); type: biochemical, human; conditions: control without PAI-1
T4 construct: purchased Stago BNL (Asnières sur Seine, FR)
Experimental: as §1, with “inhibition rate of tPA-catalyzed spectrozyme® tPA hydrolysis in the presence of PAI-1.” left out, “A mixture containing 20 μL of PAI-1 (final concentration 20 nM) and 80 μL of Spectrozyme-tPA (final concentration 400 μM) was then added, and the mixture pre-incubated for 45 minutes at 37 °C.” left out

[7] = biological target: T5, PAI-1/vitronectin complex (Homo sapiens, UniProt P05121); assay: chromogenic kinetic assay in presence of vitronectin; type: biochemical
T5 construct: purchased Stago BNL (Asnières sur Seine, FR)
T5 sequence (P05121 24-402, one chain of several): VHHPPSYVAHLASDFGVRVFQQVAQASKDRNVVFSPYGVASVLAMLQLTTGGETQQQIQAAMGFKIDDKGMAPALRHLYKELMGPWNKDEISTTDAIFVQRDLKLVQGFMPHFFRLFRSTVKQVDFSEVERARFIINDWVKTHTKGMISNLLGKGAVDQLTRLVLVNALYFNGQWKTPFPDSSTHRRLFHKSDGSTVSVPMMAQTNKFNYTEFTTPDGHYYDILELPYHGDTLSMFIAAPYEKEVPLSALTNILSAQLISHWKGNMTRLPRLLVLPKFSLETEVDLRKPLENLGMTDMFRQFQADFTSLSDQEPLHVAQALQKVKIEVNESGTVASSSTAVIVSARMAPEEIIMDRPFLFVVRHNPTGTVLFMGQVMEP
Experimental: Compounds (20 μL) were dispensed in a 96 well half area Greiner plate. A mixture containing 20 μL of PAI-1 (final concentration 20 nM) and 40 μL of a chromogenic substrate (Spectrozyme-tPA, final concentration 400 μM) was then added, and the mixture pre-incubated for 20 minutes at 37 °C. 40 μL of vitronectin (final concentration 37.5 nM) was added and the mixture further pre-incubated for 20 min at 37 °C. At the end of pre-incubation time, 90 μL of the PAI-1/vitronectin/compound mixture were added to 10 μL of tPA (final concentration 10 nM) and the tPA catalysed substrate hydrolysis reaction was followed for 45 min at 405 nm. Progress curves were then fitted using the pseudo first order equation to determine the apparent rate constant k.

[8] = biological target: T6, PAI-1 (Homo sapiens, UniProt P05121); assay: chromogenic screening assay: rate of tPA inhibition by PAI-1 (spectrozyme tPA hydrolysis); type: biochemical; conditions: mean ± SEM
T6 construct: purchased Stago BNL (Asnières sur Seine, FR)
T6 sequence (P05121 24-402): as the sequence (P05121 24-402, one chain of several) above
Experimental: as §1

[9] = tested on: T7, PAI-1 Y79A; assay: chromogenic screening assay with PAI-1 mutant Y79A; type: biochemical
T7 construct: made in house
Experimental: as §1, §2

## CCCCCCCCCCCC[C@@H](O)[C@H]1CC[C@H]([C@H](O)CCCCC(=O)CCCCC[C@@H](O)CC2=C[C@H](C)OC2=O)O1 [Annonacinone]
[1]
  effect on PAI-1 polymerization: did not permit to show formation of PAI-1 polymers
[2]
  effect on latency transition of PAI-1: No effects
[3]; 20 μM annonacinone applied locally with rtPA 40 μM and Argatroban 200 μM, 1 hour, DMSO 0.2% control 28%
  incidence of recanalization: 71%
[3]; 20 μM annonacinone with rtPA 40 μM and Argatroban 200 μM, 1 hour, DMSO control 2/7
  total number of vessels recanalized per group of 7 mice: 5/7
[3]; 35 minutes of treatment, 20 μM annonacinone with rtPA and Argatroban, n = 7, DMSO 3.4 ± 8.5%
  decrease of thrombus size from initial size: 29.7 ± 7.7%
[4]; DMSO 1% 6,6 ± 0,9 × 10^−3, n = 4
  kapp Annonacinone 50 μM: 2,3 ± 0,4 × 10^−3 s^−1
[4]; ratio of kapp relative to WT (100%)
  Annonacinone activity 50 μM (% WT): 42 ± 6 % WT
[5]; DMSO 1% 1,9 ± 0,3 × 10^−3, n = 4
  kapp Annonacinone 50 μM: 3,5 ± 0,9 × 10^−4 s^−1
[5]
  Annonacinone activity 50 μM (% WT): 80 ± 13 % WT
[5]; listed as annonacinone
  Annonacinone activity 50 μM (% WT): no effect
[6]
  effect on tPA-catalyzed substrate hydrolysis without PAI-1: no effect
[7]; 50 μM
  activity on PAI-1 bound to vitronectin: inactive
[7]; 50 μM, PAI-1 pre-incubated with VN 20 min 37 °C, DMSO 1% 1.05 ± […] 10^−2
  kapp, annonacinone added to PAI-1 pre-incubated with vitronectin: 2.16 ± 0.17 × 10^−2 s^−1
[7]; 50 μM, pre-incubation with PAI-1 20 min 37 °C, then VN 20 min 37 °C
  kapp, annonacinone pre-incubated with PAI-1 before addition of vitronectin: 2.39 ± 0.32 × 10^−3 s^−1
[7]; annonacinone pre-incubated with PAI-1 before vitronectin
  IC50: 10 ± 2 µM
[8]; PAI-1 WT (Table 2 series), DMSO 1% 6,5 ± 0,6 × 10^−3, n = 4
  kapp Annonacinone 50 μM: 9,6 ± 1,0 × 10^−4 s^−1
[8]; chromogenic screening assay, without vitronectin, n = 3, read-out: IC50
  IC50: 9 ± 1 µM
[8]; compound 50 μM, 1% DMSO, PAI-1 20 nM, tPA 10 nM, DMSO 1% control 4.4 ± 0.3 × 10^-3, n = 3
  kapp 50 μM (apparent rate constant of tPA inhibition by PAI-1): 6.4 ± 0.7 × 10^-4 s^-1
[9]; DMSO 1% 4,0 ± 1,0 × 10^−3, n = 4
  kapp Annonacinone 50 μM: 4,8 ± 0,9 × 10^−3 s^−1
[9]; ratio of kapp without/with annonacinone relative to WT (100%)
  Annonacinone activity 50 μM (% WT): 12 ± 2 % WT

Reference: PMC5120274, “Characterization of the Annonaceous acetogenin, annonacinone, a natural product inhibitor of plasminogen activator inhibitor-1” (Scientific Reports, 2016)
